Experimental data from PubChem BioAssay (NCI).
Values joined by “and” are separate entries in the source; they are usually repeats but may differ in a detail not shown here. Equal values may be shown once.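 1) Cells in 96-well plates. 2) Compound, 48 h, 5 concentrations. 3) Linear interpolation between surrounding doses. 4) Unreached endpoint = highest concentration. At the GI50, growth is halved. TGI marks complete inhibition of growth.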 Where a SMILES comes first, the peptide text is derived from it. [ ]: non-standard residue; d: D form. Phe(F5) = N[CH](Cc1c(F)c(F)c(F)c(F)c1F)C(=O)O

Key:
Assay in all cases: inhibition of tumour cell growth, NCI panel, 48 h
A549 NSCLC = tested on: A549 NSCLC
U251 CNS = tested on: U251 CNS
A498 renal = tested on: A498 renal
HS 578T breast = tested on: HS 578T breast
HOP-92 NSCLC = tested on: HOP-92 NSCLC
NCI/ADR-RES ovarian = tested on: NCI/ADR-RES ovarian
NCI-H522 lung = tested on: NCI-H522 lung
PC-3 prostate = tested on: PC-3 prostate
SK-MEL-28 melanoma = tested on: SK-MEL-28 melanoma
T-47D breast = tested on: T-47D breast

SMILES | GI50 (A549 NSCLC) | TGI (A549 NSCLC) | GI50 (U251 CNS) | TGI (U251 CNS) | GI50 (A498 renal) | TGI (A498 renal) | GI50 (HS 578T breast) [µM] | TGI (HS 578T breast) [µM] | GI50 (HOP-92 NSCLC) [µM] | TGI (HOP-92 NSCLC) | GI50 (NCI/ADR-RES ovarian) [µM] | GI50 (NCI-H522 lung) [µM] | TGI (NCI-H522 lung) | GI50 (PC-3 prostate) [µM] | TGI (PC-3 prostate) | GI50 (SK-MEL-28 melanoma) | TGI (SK-MEL-28 melanoma) | TGI (NCI/ADR-RES ovarian) [µM] | GI50 (T-47D breast) [µM] | TGI (T-47D breast) [µM]
COc1cc(Cn2cc3c(c2)-c2oncc2CC3)cc(OC)c1OC | 0.0509 µM | > 100 µM | 0.0387 µM | > 100 µM | 0.0196 µM | 1.04 µM | 0.0306 | > 51.3 | 31 | > 100 µM | 0.0268 | 0.0398 | 1.29 µM | 0.0526 | > 100 µM |  |  |  |  | 
CSc1nnc(CCSc2ccnc3c(C(F)(F)F)cccc23)o1 | > 100 µM | > 100 µM | > 100 µM | > 100 µM |  |  | 18 | 73.2 | 18.1 | > 100 µM | 72.2 | > 100 | > 100 µM | 88.4 | > 100 µM | > 100 µM | > 100 µM | > 100 | 24.9 | > 100
CC1=C2CCCC2C/C(=N/Nc2ccc([N+](=O)[O-])cc2[N+](=O)[O-])CC1 (stereo not given) |  | > 100 µM |  | > 100 µM |  | > 100 µM |  |  |  | > 100 µM |  |  | > 100 µM |  |  |  | > 100 µM |  |  | 
CC1(Sc2ccccc2)CN(Cc2ccccc2)C1=O (stereo not given) |  | > 100 µM |  | > 100 µM |  | > 100 µM |  |  |  | 86 µM |  |  | > 100 µM |  |  |  | > 100 µM |  |  | 
CC(=O)/C(=C\c1ccco1)C(=O)Nc1ccccc1 |  | > 100 µM |  | > 100 µM |  |  |  |  |  | > 100 µM |  |  | > 100 µM |  |  |  | > 100 µM |  |  | 
NCC1(N2CCOCC2)C2CCCC21CO (stereo not given) |  | > 100 µM |  | > 100 µM |  |  |  |  |  | > 100 µM |  |  | > 100 µM |  |  |  | > 100 µM |  |  | 
COC(=O)[C@@H]1CSC(=S)N1C(=O)C[C@H]1CC=CC[C@H]1CC(=O)Sc1ccccc1 |  | 40.1 µM |  | 32.4 µM |  |  |  |  |  |  |  |  | 18.2 µM |  |  |  | 32.1 µM |  |  | 
CC(=O)[O][Pb]([O]C(C)=O)([c]1ccccc1)[c]1ccccc1 | > 100 µM | > 100 µM | 4.69 µM | 10 µM | 23.4 µM | > 100 µM |  |  | 3.62 | > 100 µM |  | 0.657 | 7.46 µM |  |  | 6.72 µM | > 100 µM |  |  | 
O=C(CCn1[nH]c(=O)c(Cl)c(Cl)c1=O)NOCCCc1ccccc1 |  | > 100 µM |  |  |  | > 100 µM |  |  |  | > 100 µM |  |  |  |  |  |  | > 100 µM |  |  | 
O=C1C/C(=C/c2ccc(/C=C3/CC(=O)N(c4cccc(Br)c4)C3=O)cc2)C(=O)N1c1cccc(Br)c1 |  | > 100 µM |  | > 100 µM |  | > 100 µM |  |  |  | > 100 µM |  |  | > 100 µM |  |  |  | > 100 µM |  |  | 
CC1(C)CCC2(C(=O)OC3OC(CO)C(O)C(O)C3O)CC[C@]3(C)C(=CCC4C5(C)CC[C@H](OC6OC(C(=O)O)C(O)C(O)C6O)C(C)(C)C5CCC43C)C2C1 (stereo not given in full) | 1.83 µM | 20.2 µM | 1.06 µM | 2.61 µM |  |  | 1.62 | 4.51 | 1.04 | 2.98 µM | > 50 | 1.72 | 9.71 µM | 1.26 | 3.47 µM | 2.6 µM | 12.2 µM | > 50 | 1.75 | 5.98
Cc1ccc(C(=O)Nc2ccc(S(=O)(=O)O)c3cc(S(=O)(=O)O)cc(S(=O)(=O)O)c23)cc1NC(=O)c1cccc(N)c1 |  | > 100 µM |  | > 100 µM |  | > 100 µM |  | > 100 |  |  |  |  | > 100 µM |  | > 100 µM |  | > 100 µM | > 100 |  | > 100
CCC[CH2][Sn]([CH2]CCC)([O]C(C)=O)[O]C(C)=O | 3.65 µM | 15.3 µM | 0.888 µM | 2.09 µM |  |  |  |  | 1.92 | 4.13 µM |  | 0.147 | 0.324 µM |  |  | 1 µM | 2.27 µM |  |  | 
CC[C@](C)(O)C(=O)O[C@H]1C(=O)O[C@@H]2C[C@H]3C(C)=CC(=O)[C@@H](O)[C@]3(C)[C@H]3[C@@]4(O)OC[C@]32[C@@H]1[C@@H](C)[C@H]4O | 2.75 µM | 14.9 µM and 9.66 µM |  | 0.41 µM and 0.121 µM | 0.95 µM | 3.36 µM and 1.15 µM |  | 4.44 |  |  | 0.036 | 0.0296 | 0.148 µM |  | 44.5 µM | 0.0609 µM | 0.264 µM and 0.16 µM |  |  | 3.78
O=C(NCCCCCCNC(=O)c1cccc2ccccc12)c1cccc2ccccc12 |  | > 100 µM |  | 53.8 µM |  | 65.6 µM |  |  |  | 25.8 µM |  |  | > 100 µM |  |  |  | > 100 µM |  |  | 
CS(=O)(=O)CC1=Nc2nnc(CCCCCCCc3nnc4n3C(=O)C(CS(C)(=O)=O)=N4)n2C1=O |  | > 100 µM |  | > 100 µM |  | > 100 µM |  |  |  | > 100 µM |  |  | > 100 µM |  |  |  | > 100 µM |  |  | 
CN(C)c1ccc2c(NCCCCCCNc3ccnc4cc(N(C)C)ccc34)ccnc2c1 |  | > 100 µM |  | 24.3 µM |  | 95.8 µM |  |  |  |  |  |  | 25.2 µM |  |  |  | 50.8 µM |  |  | 
CCCC(O)[C@@H](O)c1ccc2c(c1O)C(=O)c1c(OC)cccc1C2=O (stereo not given in full) |  | > 100 µM |  | > 100 µM |  | > 100 µM |  |  |  | > 100 µM |  |  | 42.1 µM |  |  |  | > 100 µM |  |  | 
COC(=O)C(CC(C)C)NC(=O)C(Cc1cnc[nH]1)NC(=O)CNC(=O)C(NC(=O)C(C)NC(=O)C(Cc1c[nH]c2ccccc12)NC(=O)C(CCC(=O)O)NC(=O)C(N)Cc1c(F)c(F)c(F)c(F)c1F)C(C)C (stereo not given) (H-[Phe(F5)]EWAVGHL-OMe; configuration not given here) | > 100 µM | > 100 µM | > 100 µM | > 100 µM | > 100 µM | > 100 µM |  | > 12.5 |  |  |  |  | > 12.5 µM |  | > 12.5 µM | > 100 µM | > 100 µM | > 12.5 |  | > 12.5
CCc1ccc(NCc2cc(OC)c(OC)c(OC)c2)cc1 | 0.693 µM and 0.216 µM | 98.2 µM and > 92.2 µM | 0.411 µM and 0.167 µM | 22.2 µM and 11.9 µM | 2.28 µM and 3.85 µM | 20.6 µM and 49 µM |  | > 100 | 5.24 | 22.2 µM and 74.6 µM |  | 0.274 | 0.59 µM and 0.807 µM |  | 53 µM and 18.7 µM | 1.27 µM and 0.185 µM | > 75.2 µM and 69.6 µM |  |  | 74.5
Cc1ccc2[nH]c(C(=O)NN3C(=O)CSC34CCCCC4C)c(-c3ccccc3)c2c1 (stereo not given) | 13.2 µM | 28.2 µM | 16.8 µM | 32.7 µM | 17.6 µM | 34.5 µM | 27.8 | 96.2 | 12.7 | 27.3 µM |  | 13.1 | 27.9 µM | 12.5 | 30.1 µM | 19.9 µM | 38.3 µM |  | 16.3 | 40
